Laboratory results as given in DBAASP.
≈ marks a conversion by molar mass, not a printed value. Where “and” joins values, the source holds several entries; their conditions need not be identical. Equal entries are not always repeated. Values belong to the compound of their own block, whether it stands above or below them.

Legend:
Assay in all cases: ≥ marks a high value that may be exact or a test limit, other limits are often not marked, values filed in µg/mL are converted to µM
[1] = test system: Acinetobacter baumannii CCARM 12035
[2] = test system: Pseudomonas aeruginosa CCARM 2002
[3] = test system: Escherichia coli CCARM 1229
[4] = test system: Staphylococcus aureus CCARM 3126
[5] = test system: Acinetobacter baumannii KCTC 2508
[6] = test system: Staphylococcus aureus KCTC 1621
[7] = test system: Salmonella typhimurium KCTC 1926
[8] = test system: Bacillus subtilis KCTC 3068
[9] = test system: Salmonella typhimurium CCARM 8007
[10] = test system: Staphylococcus epidermidis KCTC 1917
[11] = test system: Escherichia coli KCTC 1682
[12] = test system: Pseudomonas aeruginosa KCTC 2004
[13] = test system: Salmonella enterica subsp. enterica serovar Typhimurium ATCC 14028s
[14] = test system: Enterococcus faecalis ATCC 29212
[15] = test system: Staphylococcus epidermidis C621
[16] = test system: Staphylococcus aureus ATCC 25923
Escherichia coli UB1005 = test system: Escherichia coli UB1005
[17] = test system: Pseudomonas aeruginosa K799
Klebsiella pneumoniae = test system: Klebsiella pneumoniae
[18] = test system: Pseudomonas aeruginosa PA14
[19] = test system: Escherichia coli ATCC 25922
[20] = test system: Escherichia coli ATCC 8739
[21] = test system: Pseudomonas aeruginosa ATCC 27853
Staphylococcus aureus = test system: Staphylococcus aureus
Escherichia coli = test system: Escherichia coli
[22] = test system: Pseudomonas aeruginosa PAO1
[23] = test system: Mycobacterium tuberculosis H37Rv
[24] = test system: Klebsiella pneumoniae ATCC BAA-2146
[25] = test system: Cryptococcus neoformans ATCC 208821
Acinetobacter baumannii = test system: Acinetobacter baumannii
[26] = test system: Candida albicans ATCC 90028
[27] = test system: Bacillus subtilis ATCC 6051
[28] = test system: Klebsiella pneumoniae ATCC 700603
Pseudomonas aeruginosa = test system: Pseudomonas aeruginosa
[29] = test system: Staphylococcus aureus ATCC 43300
[30] = test system: Acinetobacter baumannii ATCC 19606
[31] = test system: Klebsiella pneumoniae ATCC 13883
[32] = test system: Candida albicans ATCC 10231
[33] = test system: Corynebacterium glutamicum ATCC 13032
[34] = test system: Staphylococcus aureus ATCC 9144
Aureobasidium pullulans = test system: Aureobasidium pullulans

MIC [1]: 8 µM (≈ 12.2 µg/mL)
MIC [2]: 16 µM (≈ 24.5 µg/mL)
MIC [3]: 16 µM (≈ 24.5 µg/mL)
MIC [4]: 16 µM (≈ 24.5 µg/mL)
MIC [5]: 8 µM (≈ 12.2 µg/mL)
MIC [6]: 8 µM (≈ 12.2 µg/mL)
MIC [7]: ≥ 32 µM
MIC [8]: 16 µM (≈ 24.5 µg/mL)
MIC [9]: 16 µM (≈ 24.5 µg/mL)
MIC [10]: 16 µM (≈ 24.5 µg/mL)
MIC [11]: 8 µM (≈ 12.2 µg/mL)
MIC [12]: 8 µM (≈ 12.2 µg/mL)
SMILES: CC[C@H](C)[C@H](NC(=O)[C@H](CCCCN)NC(=O)[C@H](Cc1c[nH]c2ccccc12)NC(=O)[C@@H](N)CCCN=C(N)N)C(=O)N[C@@H](Cc1ccccc1)C(=O)N[C@@H](CCCCN)C(=O)N[C@@H](CCCCN)C(=O)N[C@H](C(=O)N[C@H](C(=O)N[C@@H](CCCCN)C(=O)N[C@@H](CCCCN)C(=O)N[C@@H](C)C(N)=O)C(C)C)C(C)C [RWKIFKKVVKKA]

MIC [13]: 5.33 µM (≈ 7.98 µg/mL)
MIC [14]: > 21.3 µM
MIC [15]: 5.33 µM (≈ 7.98 µg/mL)
MIC [16]: 21.3 µM (≈ 31.9 µg/mL)
MIC (Escherichia coli UB1005): 2.67 µM (≈ 3.99 µg/mL)
MIC [17]: 10.7 µM (≈ 16 µg/mL)
SMILES: CC[C@H](C)[C@H](NC(=O)[C@@H]1CSSC[C@H](NC(=O)[C@@H](NC(=O)[C@@H](N)CCCN=C(N)N)[C@@H](C)CC)C(=O)N[C@@H](CCCN=C(N)N)C(=O)N[C@@H]([C@@H](C)CC)C(=O)N[C@@H](C(C)C)C(=O)N[C@@H](C(C)C)C(=O)N[C@@H]([C@@H](C)CC)C(=O)N[C@@H](CCCN=C(N)N)C(=O)N1)C(=O)N[C@@H](CCCN=C(N)N)C(N)=O [RICRIVVIRCIR]

MIC (Klebsiella pneumoniae): 16 µM (≈ 36.8 µg/mL)
MIC [18]: 8 µM (≈ 18.4 µg/mL)
MIC [19]: 8 µM (≈ 18.4 µg/mL)
MIC [20]: 8 µM and 6.97 µM
MIC [21]: 16 µM (≈ 36.8 µg/mL)
MIC (Staphylococcus aureus): > 64 µM
MIC (Escherichia coli): 8 µM (≈ 18.4 µg/mL)
MIC [16]: 64 µM and 55.7 µM
MIC [22]: 8 µM (≈ 18.4 µg/mL)
SMILES: CC[C@H](C)[C@H](NC(=O)[C@H](CCCCN)NC(=O)[C@H](CC(C)C)NC(=O)[C@H](CCCN=C(N)N)NC(=O)[C@H](CC(C)C)NC(=O)[C@H](CCCCN)NC(=O)[C@H](CCCCN)NC(=O)[C@H](CC(C)C)NC(=O)[C@H](CC(C)C)NC(=O)[C@H](CCCCN)NC(=O)[C@H](CCCCN)NC(=O)[C@H](CC(N)=O)NC(=O)[C@H](CCCN=C(N)N)NC(=O)[C@H](C)NC(=O)[C@H](CCSC)NC(=O)[C@@H]1CCCN1)C(=O)N[C@@H](C)C(=O)N[C@@H](Cc1ccccc1)C(=O)N[C@@H](CCCCN)C(=O)O [PMARNKKLLKKLRLKIAFK]

MIC [23]: ≥ 68.7 µM
SMILES: CC[C@H](C)[C@H](NC(=O)[C@H](Cc1c[nH]c2ccccc12)NC(=O)[C@H](CCCN=C(N)N)NC(=O)[C@H](CCCCN)NC(=O)[C@H](C)NC(=O)[C@H](CC(C)C)NC(=O)[C@H](CCCN=C(N)N)NC(=O)[C@H](CC(=O)O)NC(=O)[C@@H](NC(=O)[C@H](CC(N)=O)NC(=O)[C@H](CCC(=O)O)NC(=O)[C@H](CCC(=O)O)NC(=O)[C@H](CO)NC(=O)[C@@H](NC(=O)[C@H](CC(N)=O)NC(=O)[C@H](CCCN=C(N)N)NC(=O)[C@H](C)N)C(C)C)C(C)C)C(=O)N[C@@H](CCCCN)C(=O)O [ARNVSEENVDRLAKRWIK]

MIC (Klebsiella pneumoniae): 7.14 µM (≈ 16 µg/mL)
MIC [24]: 0.446 µM (≈ 0.998 µg/mL)
MIC [25]: 0.446 µM (≈ 0.998 µg/mL)
MIC (Acinetobacter baumannii): 0.223 µM (≈ 0.499 µg/mL)
MIC [26]: 3.57 µM (≈ 7.99 µg/mL)
MIC [27]: 0.112 µM (≈ 0.25 µg/mL)
MIC [19]: 0.112 µM (≈ 0.25 µg/mL)
MIC [28]: 0.446 µM (≈ 0.998 µg/mL)
MIC (Pseudomonas aeruginosa): 0.893 µM (≈ 2 µg/mL)
MIC [21]: 0.446 µM (≈ 0.998 µg/mL)
MIC [29]: 1.79 µM (≈ 3.99 µg/mL)
MIC [30]: 0.112 µM (≈ 0.25 µg/mL)
MIC [31]: 0.112 µM (≈ 0.25 µg/mL)
SMILES: CC[C@H](C)[C@@H]1NC(=O)CNC(=O)[C@H](CCCN=C(N)N)NC(=O)[C@H](Cc2ccc(O)cc2)NC(=O)[C@@H]2CSSC[C@H](NC1=O)C(=O)N[C@@H](Cc1ccc(O)cc1)C(=O)N[C@@H](CCCN=C(N)N)C(=O)N[C@@H](CCCN=C(N)N)C(=O)N[C@H](C(=O)N[C@@H](CCCN=C(N)N)C(=O)O)CSSC[C@H](NC(=O)[C@H](Cc1c[nH]c3ccccc13)NC(=O)[C@@H](N)CCCCN)C(=O)N[C@@H](Cc1ccccc1)C(=O)N[C@@H](CCCN=C(N)N)C(=O)N[C@@H](C)C(=O)N2 [KWCFRACYRGICYRRCR]

MIC [1]: 16 µM (≈ 24.5 µg/mL)
MIC [2]: 16 µM (≈ 24.5 µg/mL)
MIC [3]: ≥ 64 µM
MIC [4]: ≥ 64 µM
MIC [5]: ≥ 64 µM
MIC [6]: 16 µM (≈ 24.5 µg/mL)
MIC [7]: ≥ 64 µM
MIC [8]: ≥ 64 µM
MIC [9]: ≥ 32 µM
MIC [10]: ≥ 64 µM
MIC [11]: 16 µM (≈ 24.5 µg/mL)
MIC [12]: 8 µM (≈ 12.2 µg/mL)
SMILES: CC[C@H](C)[C@H](NC(=O)[C@H](CCCCN)NC(=O)[C@H](CCCCN)NC(=O)[C@H](Cc1ccccc1)NC(=O)[C@@H](NC(=O)[C@H](CCCCN)NC(=O)[C@H](Cc1c[nH]c2ccccc12)NC(=O)[C@@H](N)CCCN=C(N)N)[C@@H](C)CC)C(=O)N[C@@H](CCC(=O)O)C(=O)N[C@@H](CCCCN)C(=O)N[C@H](C(=O)NCC(N)=O)C(C)C [RWKIFKKIEKVG]

MIC (Klebsiella pneumoniae): > 7.14 µM
MIC [24]: 7.14 µM (≈ 16 µg/mL)
MIC [25]: 1.79 µM (≈ 3.99 µg/mL)
MIC (Acinetobacter baumannii): 7.14 µM (≈ 16 µg/mL)
MIC [26]: 7.14 µM (≈ 16 µg/mL)
MIC [27]: 0.112 µM (≈ 0.25 µg/mL)
MIC [19]: 0.223 µM (≈ 0.499 µg/mL)
MIC [28]: 7.14 µM (≈ 16 µg/mL)
MIC (Pseudomonas aeruginosa): > 7.14 µM
MIC [21]: > 7.14 µM
MIC [29]: > 7.14 µM
MIC [30]: 7.14 µM (≈ 16 µg/mL)
MIC [31]: 7.14 µM (≈ 16 µg/mL)
SMILES: CC[C@H](C)[C@@H]1NC(=O)CNC(=O)[C@H](C)NC(=O)[C@H](Cc2ccc(O)cc2)NC(=O)[C@@H]2CSSC[C@H](NC1=O)C(=O)N[C@@H](Cc1ccc(O)cc1)C(=O)N[C@@H](CCCN=C(N)N)C(=O)N[C@@H](CCCN=C(N)N)C(=O)N[C@H](C(=O)N[C@@H](CCCN=C(N)N)C(=O)O)CSSC[C@H](NC(=O)[C@H](Cc1c[nH]c3ccccc13)NC(=O)[C@@H](N)CCCCN)C(=O)N[C@@H](Cc1ccccc1)C(=O)N[C@@H](CCCN=C(N)N)C(=O)N[C@@H](CCCN=C(N)N)C(=O)N2 [KWCFRRCYAGICYRRCR]

MIC [19]: 6.3 µM (≈ 11.9 µg/mL)
MIC [32]: 100 µM (≈ 188 µg/mL)
MIC [33]: 0.4 µM (≈ 0.753 µg/mL)
MIC [21]: 25 µM (≈ 47.1 µg/mL)
MIC [34]: 12.5 µM (≈ 23.5 µg/mL)
MIC (Aureobasidium pullulans): ≥ 100 µM
SMILES: CC(C)[C@H](NC(=O)[C@H](CCCCN)NC(=O)[C@H](C)NC(=O)[C@@H](NC(=O)[C@@H](NC(=O)[C@H](CCCN=C(N)N)NC(=O)[C@H](CCCN=C(N)N)NC(=O)[C@H](Cc1c[nH]c2ccccc12)NC(=O)[C@@H](N)Cc1c[nH]c2ccccc12)[C@@H](C)O)C(C)C)C(=O)N[C@@H](CCCN=C(N)N)C(=O)N[C@@H](CC(N)=O)C(=O)N[C@@H](C)C(=O)NCC(=O)N[C@@H](CCCN=C(N)N)C(=O)N[C@@H](CCCCN)C(N)=O [WWRRTVAKVRNAGRK]
